Reference: ChEMBL document CHEMBL1143183, “New polyphenols active on beta-amyloid aggregation” (Bioorg Med Chem Lett, 2008)

Columns and labels:
[1] = Inhibition of beta amyloid 25-35 fibril formation at 10 uM
[2] = Inhibition of beta amyloid 25-35 fibril formation

## O=C(O[C@@H]1Cc2c(O)cc(O)cc2O[C@@H]1c1ccc(O)c(O)c1)c1cc(O)c(O)c(O)c1
[1]
  inhibition: 13%

## Oc1cc(O)c2cc(O)c(-c3cc(O)c(O)c(O)c3)[o+]c2c1
[1]
  inhibition: 26%

## COc1cc(-c2[o+]c3cc(O)cc(O)c3cc2O)cc(OC)c1O [MALVIDIN]
[1]
  inhibition: 46%
[2]
  EC50: 10 µM

## COc1cc(-c2[o+]c3cc(O)cc(O)c3cc2O[C@@H]2O[C@H](CO)[C@@H](O)[C@H](O)[C@H]2O)cc(OC)c1O [OENIN]
[1]
  inhibition: 44%
[2]
  EC50: 10 µM

## OC[C@H]1O[C@@H](Oc2cc3c(O)cc(O)cc3[o+]c2-c2ccc(O)c(O)c2)[C@H](O)[C@@H](O)[C@@H]1O
[1]
  inhibition: 31%

## O=C(O)/C=C/c1ccc(O)cc1
[1]
  inhibition: 17%

## Oc1cc(O)c2c(c1)O[C@H](c1cc(O)c(O)c(O)c1)[C@H](O)C2
[1]
  inhibition: 18%

## COc1ccc(O)c(OC)c1C(=O)OCc1ccccc1O[C@@H]1O[C@H](CO)[C@@H](O)[C@H](O)[C@H]1O [CURCULIGOSIDE D]
[1]
  inhibition: 49%
[2]
  EC50: 9.5 µM

## Oc1cc(O)c2cc(O)c(-c3ccc(O)c(O)c3)[o+]c2c1
[1]
  inhibition: 35%

## O=C(O)/C=C/c1ccc(O)c(O)c1
[1]
  inhibition: 15%

## COc1cc(/C=C/c2ccc(O)cc2)cc(OC)c1
[1]
  inhibition: 35%

## O=C(O)c1ccc(O)cc1
[1]
  inhibition: 29%

## COc1cccc(OC)c1C(=O)OCc1cc(O)ccc1O[C@@H]1O[C@H](CO)[C@@H](O)[C@H](O)[C@H]1O
[1]
  inhibition: 28%

## Oc1ccc(/C=C/c2cc(O)cc(O)c2)cc1 [RESVERATROL]
[1]
  inhibition: 63%
[2]
  EC50: 6 µM

## O=C(O[C@@H]1Cc2c(O)cc(O)cc2O[C@@H]1c1cc(O)c(O)c(O)c1)c1cc(O)c(O)c(O)c1
[1]
  inhibition: 13%

## COc1cccc(O)c1C(=O)OCc1cc(O)ccc1O[C@@H]1O[C@H](CO)[C@@H](O)[C@H](O)[C@H]1O [CURCULIGOSIDE B]
[1]
  inhibition: 53%
[2]
  EC50: 8.5 µM

## COc1cc(/C=C/C(=O)CC(=O)/C=C/c2ccc(O)c(OC)c2)ccc1O [CURCUMIN]
[1]
  inhibition: 45%
[2]
  EC50: 10 µM
